# Measurements published in US11339130B1 (Blade Therapeutics, Inc., priority 2016, dated 2022).
# Read-outs that look alike come from different tables or passages of the source.
# Legend:
# Human Calpain 1/NS1 = target: T1, Human Calpain 1/NS1 (Homo sapiens, UniProt P07384); experiment: Calpain inhibition continuous fluorescence (FRET) assay, Human Calpain 1/NS1; assay type: biochemical; conditions: read-out: Human Calpain 1/NS1 IC50
# T1 sequence (P07384 1-714): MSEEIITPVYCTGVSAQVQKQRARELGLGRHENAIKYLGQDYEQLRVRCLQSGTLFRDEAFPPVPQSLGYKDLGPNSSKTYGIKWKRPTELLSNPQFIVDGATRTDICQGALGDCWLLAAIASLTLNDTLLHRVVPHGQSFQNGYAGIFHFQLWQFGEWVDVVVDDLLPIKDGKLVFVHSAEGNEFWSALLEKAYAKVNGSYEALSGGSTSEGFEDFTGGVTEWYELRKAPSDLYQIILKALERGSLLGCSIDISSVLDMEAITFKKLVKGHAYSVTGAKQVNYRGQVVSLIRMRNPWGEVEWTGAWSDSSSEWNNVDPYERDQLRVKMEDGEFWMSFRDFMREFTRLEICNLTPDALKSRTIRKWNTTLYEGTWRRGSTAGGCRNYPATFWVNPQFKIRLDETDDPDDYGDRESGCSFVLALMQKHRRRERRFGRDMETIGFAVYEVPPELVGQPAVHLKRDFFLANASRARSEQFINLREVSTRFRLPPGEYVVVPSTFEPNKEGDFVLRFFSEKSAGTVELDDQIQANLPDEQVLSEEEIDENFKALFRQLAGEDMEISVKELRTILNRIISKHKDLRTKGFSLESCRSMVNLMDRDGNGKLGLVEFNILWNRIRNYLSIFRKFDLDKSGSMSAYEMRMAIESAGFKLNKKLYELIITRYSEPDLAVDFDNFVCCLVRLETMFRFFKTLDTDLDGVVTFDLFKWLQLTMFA
# T1 sequence (P04632 1-268 partner): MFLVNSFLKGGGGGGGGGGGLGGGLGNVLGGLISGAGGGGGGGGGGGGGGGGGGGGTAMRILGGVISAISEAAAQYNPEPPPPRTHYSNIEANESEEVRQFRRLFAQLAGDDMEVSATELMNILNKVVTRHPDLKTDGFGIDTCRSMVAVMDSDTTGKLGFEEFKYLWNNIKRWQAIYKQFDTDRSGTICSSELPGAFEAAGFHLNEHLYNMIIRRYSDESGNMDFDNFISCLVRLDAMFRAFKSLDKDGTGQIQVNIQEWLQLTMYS
# Summary of the method: (§1)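 Inhibitors were preincubated with calpain in 50 mM Tris pH 7.5, 100 mM NaCl, 1 mM DTT at 25C. Reactions were started with 5-FAM/QXL 520 FRET peptide substrate plus CaCl2 and read at 490/520 nm for 10 min. IC50s came from 4-parameter fits of slope rates (1-5 min).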
# Human Calpain 2/NS1 = target: T2, Human Calpain 2/NS1 (Homo sapiens, UniProt P17655); experiment: Calpain inhibition continuous fluorescence (FRET) assay, Human Calpain 2/NS1; assay type: biochemical; conditions: read-out: Human Calpain 2/NS1 IC50
# T2 sequence (P17655 1-700): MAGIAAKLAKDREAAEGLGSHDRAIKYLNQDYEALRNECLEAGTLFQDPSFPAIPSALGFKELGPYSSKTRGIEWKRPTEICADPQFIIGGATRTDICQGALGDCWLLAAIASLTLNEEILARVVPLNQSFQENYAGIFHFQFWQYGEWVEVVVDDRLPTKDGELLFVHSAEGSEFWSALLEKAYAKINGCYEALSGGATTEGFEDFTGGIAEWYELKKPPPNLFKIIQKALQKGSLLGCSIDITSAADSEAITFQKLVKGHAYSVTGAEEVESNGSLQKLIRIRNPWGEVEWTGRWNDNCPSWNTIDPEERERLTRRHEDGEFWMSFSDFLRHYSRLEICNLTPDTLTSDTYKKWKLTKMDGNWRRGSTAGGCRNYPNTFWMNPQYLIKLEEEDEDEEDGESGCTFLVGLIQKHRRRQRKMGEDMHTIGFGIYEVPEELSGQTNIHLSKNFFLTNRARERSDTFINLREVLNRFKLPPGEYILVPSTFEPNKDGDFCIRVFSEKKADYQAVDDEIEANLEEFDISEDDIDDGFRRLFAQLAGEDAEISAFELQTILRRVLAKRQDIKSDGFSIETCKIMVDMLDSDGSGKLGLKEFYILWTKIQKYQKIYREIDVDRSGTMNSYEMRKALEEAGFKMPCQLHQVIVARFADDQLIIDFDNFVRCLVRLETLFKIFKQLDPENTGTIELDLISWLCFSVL
# T2 sequence (P04632 1-268 partner): T1 sequence (P04632 1-268 partner)
# Summary of the method: as §1
# Human Calpain 9/NS1 = target: T3, Human Calpain 9/NS1 (Homo sapiens, UniProt O14815); experiment: Calpain inhibition continuous fluorescence (FRET) assay, Human Calpain 9/NS1; assay type: biochemical; conditions: read-out: Human Calpain 9/NS1 IC50
# T3 sequence (O14815 1-690): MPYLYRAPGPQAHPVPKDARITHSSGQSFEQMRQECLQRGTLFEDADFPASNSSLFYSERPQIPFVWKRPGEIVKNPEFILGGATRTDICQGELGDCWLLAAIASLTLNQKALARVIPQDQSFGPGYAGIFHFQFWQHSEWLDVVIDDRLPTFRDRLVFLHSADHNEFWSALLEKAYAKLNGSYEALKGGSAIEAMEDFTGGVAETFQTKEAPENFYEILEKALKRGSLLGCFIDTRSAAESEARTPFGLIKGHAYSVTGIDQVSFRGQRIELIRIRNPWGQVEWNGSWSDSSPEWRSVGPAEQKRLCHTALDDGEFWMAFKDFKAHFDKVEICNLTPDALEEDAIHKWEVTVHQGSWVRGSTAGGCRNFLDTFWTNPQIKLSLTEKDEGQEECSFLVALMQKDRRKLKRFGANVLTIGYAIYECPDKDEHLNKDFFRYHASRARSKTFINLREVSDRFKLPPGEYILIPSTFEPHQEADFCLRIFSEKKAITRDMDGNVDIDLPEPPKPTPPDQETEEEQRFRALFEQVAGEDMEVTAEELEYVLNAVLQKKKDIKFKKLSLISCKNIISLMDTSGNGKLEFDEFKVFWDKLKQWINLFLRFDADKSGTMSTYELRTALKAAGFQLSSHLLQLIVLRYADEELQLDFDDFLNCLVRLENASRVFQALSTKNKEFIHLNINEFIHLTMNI
# T3 sequence (P04632 1-268 partner): T1 sequence (P04632 1-268 partner)
# Summary of the method: as §1
# [1] = tested on: Calpain activity in SH-SY5Y cells (SBDP-150); experiment: SH-SY5Y Spectrin western blot assay (SBDP-150 breakdown product, A23187-induced); assay type: cell-based; conditions: Homo sapiens, SH-SY5Y cells, read-out: SH-SY5Y Spectrin IC50
# [2] = Column D, A23187-induced SBDP-150
# [3] = A23187-induced SBDP-150, western blot
IC50 (Human Calpain 1/NS1; Column A) [µM],IC50 (Human Calpain 2/NS1; Column B) [µM],IC50 (Human Calpain 9/NS1; Column C) [µM],"IC50 [1, 2] [µM]",IC50 (Human Calpain 1/NS1) [µM],IC50 (Human Calpain 2/NS1) [µM],IC50 (Human Calpain 9/NS1) [µM],"IC50 [1, 3] [µM]",SMILES
< 3,< 3,< 3,> 25,–,–,–,–,"Cc1cc(C(=O)N[C@@H](Cc2ccccc2)C(=O)C(N)=O)n(-c2nc3ccccc3s2)n1 [Compound 13, (S)—N-(4-amino-3,4-dioxo-1-phenylbutan-2-yl)-1-(benzo[D]thiazol-2-yl)-3-methyl-1H-pyrazole-5-carboxamide]"
< 3,< 3,< 3,10 to 25,–,–,–,–,"Cc1cc(C(=O)N[C@@H](Cc2ccccc2)C(=O)C(N)=O)n(-c2cccc(CNC(=O)c3ccccc3)c2)n1 [Compound 141, (S)—N-(4-amino-3,4-dioxo-1-phenylbutan-2-yl)-1-(3-(benzamidomethyl)phenyl)-3-methyl-1H-pyrazole-5-carboxamide]"
< 3,< 3,< 3,> 25,–,–,–,–,"Cc1cc(C(=O)N[C@@H](Cc2ccccc2)C(=O)C(N)=O)n(-c2ccc(CNC(=O)CCc3ccccc3)cc2)n1 [Compound 155, (S)—N-(4-amino-3,4-dioxo-1-phenylbutan-2-yl)-3-methyl-1-(4-((3-phenylpropanamido)methyl)phenyl)-1H-pyrazole-5-carboxamide]"
< 3,< 3,< 3,> 25,–,–,–,–,"NC(=O)C(=O)[C@H](Cc1ccccc1)NC(=O)c1nccn1-c1ccccc1 [Compound 221, (S)—N-(4-amino-3,4-dioxo-1-phenylbutan-2-yl)-1-phenyl-1H-imidazole-2-carboxamide]"
< 3,< 3,< 3,10 to 25,–,–,–,–,"Cc1cccc2sc(-n3nc(C(=O)N[C@@H](Cc4ccccc4)C(=O)C(N)=O)cc3C)nc12 [Compound 299, (S)—N-(4-amino-3,4-dioxo-1-phenylbutan-2-yl)-5-methyl-1-(4-methylbenzo[d]thiazol-2-yl)-1H-pyrazole-3-carboxamide]"
–,–,–,–,< 3,< 3,< 3,> 25,"Cn1cc(C(=O)N[C@@H](Cc2ccccc2)C(=O)C(=O)NCCNC(=O)OC(C)(C)C)c(-c2ccccc2)n1 [Compound 340, Tert-butyl (S)-(2-(3-(1-methyl-3-phenyl-1H-pyrazole-4-carboxamido)-2-oxo-4-phenylbutanamido)ethyl)carbamate]"
–,–,–,–,< 3,< 3,< 3,10 to 25,"Cc1cc(C(=O)N[C@@H](Cc2ccccc2)C(=O)C(N)=O)n(-c2cccc(CNC(=O)OCc3ccccc3)c2)n1 [Compound 343, Benzyl (S)-(3-(5-((4-amino-3,4-dioxo-1-phenylbutan-2-yl)carbamoyl)-3-methyl-1H-pyrazol-1-yl)benzyl)carbamate]"
–,–,–,–,> 10,> 10,> 10,> 25,"Cc1cc(C(=O)NC(Cc2ccccc2)C(=O)C(N)=O)n(-c2ncccc2C)n1 (centres unmarked) [Compound 345, N-(4-amino-3,4-dioxo-1-phenylbutan-2-yl)-3-methyl-1-(3-methylpyridin-2-yl)-1H-pyrazole-5-carboxamide]"
–,–,–,–,> 10,3 to 10,3 to 10,> 25,"Cc1cccnc1-n1nc(C(=O)NC(Cc2ccccc2)C(=O)C(N)=O)cc1C (centres unmarked) [Compound 346, N-(4-amino-3,4-dioxo-1-phenylbutan-2-yl)-5-methyl-1-(3-methylpyridin-2-yl)-1H-pyrazole-3-carboxamide]"
–,–,–,–,< 3,< 3,< 3,10 to 25,"NC(=O)C(=O)C(Cc1ccccc1)NC(=O)c1nsnc1Cl (centres unmarked) [Compound 364, N-(4-amino-3,4-dioxo-1-phenylbutan-2-yl)-4-chloro-1,2,5-thiadiazole-3-carboxamide]"
–,–,–,–,< 3,< 3,< 3,10 to 25,"O=C(NC1CC1)C(=O)C(Cc1ccccc1)NC(=O)c1nsnc1-c1ccccc1 (centres unmarked) [Compound 462, N-(4-(cyclopropylamino)-3,4-dioxo-1-phenylbutan-2-yl)-4-phenyl-1,2,5-thiadiazole-3-carboxamide]"
